Results as given in patent US20250195513A1, “DEGRADATION OF IRAK4 BY CONJUGATION OF IRAK4 INHIBITORS WITH E3 LIGASE LIGAND AND METHODS OF USE” (BeiGene, Ltd., priority 2022, published 2025).

Assays:
IRAK4 [1] = biological target: T1, IRAK4 (Homo sapiens, UniProt Q9NWZ3); assay: IRAK4 Degradation Assay with Human Serum (Karpas299, HTRF/TR-FRET); assay type: cell-based; details: Karpas-299 in human serum, 24 hrs treatment; for DC50: read-out: IRAK4 degradtion with human serum assay DC50; for Dmax: read-out: IRAK4 degradtion with human serum assay Dmax (%)
T1 construct: endogenous in cells; host or cells: Karpas299
T1 sequence (Q9NWZ3 1-460): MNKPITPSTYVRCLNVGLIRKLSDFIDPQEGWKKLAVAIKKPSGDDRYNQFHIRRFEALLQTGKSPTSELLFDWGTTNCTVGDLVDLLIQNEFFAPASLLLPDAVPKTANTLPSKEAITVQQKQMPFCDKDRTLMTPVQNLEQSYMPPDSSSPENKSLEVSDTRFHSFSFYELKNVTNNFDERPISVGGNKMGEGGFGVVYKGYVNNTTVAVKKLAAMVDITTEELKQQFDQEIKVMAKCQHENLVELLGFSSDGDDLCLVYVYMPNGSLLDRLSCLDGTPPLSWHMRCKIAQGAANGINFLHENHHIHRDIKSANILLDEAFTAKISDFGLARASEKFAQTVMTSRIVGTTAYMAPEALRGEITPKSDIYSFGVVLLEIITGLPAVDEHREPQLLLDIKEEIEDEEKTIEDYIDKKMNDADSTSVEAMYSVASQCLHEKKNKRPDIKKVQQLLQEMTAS
Protocol: IRAK4 degradation was measured using a TR-FRET-based method (Degorce, François, et al. Current chemical genomics. 2009, 3: 22). Karpas299 resuspended in Human serum AB (GEMINI, 100-512) were seeded into 96-well plates at the density of 0.2 million cells per well and then treated with a series dilution of compounds. After 24 hrs treatment, cells were pelleted via centrifugation and washed with PBS, add 40 μL lysis buffer (Cisbio) to each well after removal of the supernatant. Plates were then incubated at room temperature with shaking for 30 minutes. A total of 16 μL of cell lysates from each well of a 96-well plate was transferred to a 384-well white assay plate. IRAK4 level was quantitated using the HTRF kit as described by the manufacturer manual (Cisbio). FRET signals were measured using a PHERAstar FSX reader (BMG Labtech).
After treatment, add HTRF lysis buffer to each well; seal the plate and incubate 1 hour at room temperature on a plate shaker; Once the cells are lysed, 16 μL of cell lysate are transferred to a PE 384-well HTRF detection plate; 4 μL of pre-mixed HTRF antibodies are added to each well; Cover the plate with a plate sealer, spin 1000 rpm for 1 min, Incubate overnight at room temperature; Read on BMG PheraStar with HTRF protocol (337 nm-665 nm-620 nm).
The inhibition (degradation) percentage of the compound was calculated by the following equation: […]
The IC50 (DC50) value of a compound can be obtained by fitting the following equation
Wherein, X and Y are known values, and IC50, Hillslope, Top and Bottom are the parameters obtained by fitting with software. Y is the inhibition percentage (calculated from the equation), X is the concentration of the compound; IC50 is the concentration of the compound when the […] is reached. The smaller the IC50 value is, the stronger the inhibitory ability of the compound is. Vice versa, the higher the IC50 value is, the weaker the ability the inhibitory ability of the compound is; Hillslope represents the slope of the fitted curve, generally around 1 *; Bottom represents the minimum value of the curve obtained by data fitting, which is generally 0%±20%; Top represents the maximum value of the curve obtained by data fitting, which is generally 100%±20%. The experimental data were fitted by calculating and analyzing with Dotmatics data analysis software.

IRAK4 [2] = biological target: T1, IRAK4; assay: IRAK4 Degradation Assay (Karpas299, HTRF/TR-FRET); assay type: cell-based; details: Karpas-299 cells, 24 h treatment; for Dmax: maximum percentage of degradation, read-out: IRAK4 in Karpas-299 (24 h) Dmax (%); for DC50: read-out: IRAK4 in Karpas-299 (24 h) DC50
Outline: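 Compound potency as DC50 (IC50) came from four-parameter fits of percent IRAK4 degradation. IRAK4 was measured by HTRF (665/620 nm) in lysates of Karpas299 cells seeded at 0.2 million per well. Cells had been treated with compound dilutions for 5 or 24 h.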

DC50 (IRAK4 [1])	Dmax (IRAK4 [1])	Dmax (IRAK4 [2])	DC50 (IRAK4 [2])	Structure (SMILES)
57 nM	97%	97%	2.4 nM	CC(C)(O)c1cc2nn([C@H]3CC[C@H](N4CCN(C(=O)[C@@H]5CCN(c6cc(F)c(N7CCC(=O)NC7=O)c(F)c6)C5)CC4)CC3)cc2cc1NC(=O)c1ccc2cc(C#N)cnn12 [Example 106, 3-cyano-N-(2-((1R,4r)-4-(4-((R)-1-(4-(2,4-dioxotetrahydropyrimidin-1(2H)-yl)-3,5-difluorophenyl)pyrrolidine-3-carbonyl)piperazin-1-yl)cyclohexyl)-6-(2-hydroxypropan-2-yl)-2H-indazol-5-yl)pyrrolo[1,2-b]pyridazine-7-carboxamide]
28 nM	94%	97%	3.9 nM	CC(C)(O)c1cc2nn([C@H]3CC[C@H](N4CCN(CC5CN(c6cc(F)c(N7CCC(=O)NC7=O)c(F)c6)C5)CC4)CC3)cc2cc1NC(=O)c1ccc2cc(C#N)cnn12 [Example 108, 3-cyano-N-(2-((1r,4r)-4-(4-((1-(4-(2,4-dioxotetrahydropyrimidin-1(2H)-yl)-3,5-difluorophenyl)azetidin-3-yl)methyl)piperazin-1-yl)cyclohexyl)-6-(2-hydroxypropan-2-yl)-2H-indazol-5-yl)pyrrolo[1,2-b]pyridazine-7-carboxamide]
		9%	> 10000 nM	CC(C)(O)c1cc2nn([C@H]3CC[C@H](N4CCN(C(=O)C5CN(c6cc(F)c([C@H]7CCC(=O)NC7=O)c(F)c6)C5)CC4)CC3)cc2cc1NC(=O)c1cnn2cc(C#N)cnc12 [Example 411, 6-cyano-N-(2-((1r,4r)-4-(4-(1-(4-((R)-2,6-dioxopiperidin-3-yl)-3,5-difluorophenyl)azetidine-3-carbonyl)piperazin-1-yl)cyclohexyl)-6-(2-hydroxypropan-2-yl)-2H-indazol-5-yl)pyrazolo[1,5-a]pyrimidine-3-carboxamide]
		99%	0.2 nM	CC(C)(O)c1cc2nn([C@H]3CC[C@H](CN4CCN(C5CN(c6cc(F)c([C@H]7CCC(=O)NC7=O)c(F)c6)C5)CC4)CC3)cc2cc1NC(=O)c1csc(-c2cn[nH]c2)n1 [Example 433, N-(2-((1r,4r)-4-((4-(1-(4-((R)-2,6-dioxopiperidin-3-yl)-3,5-difluorophenyl)azetidin-3-yl)piperazin-1-yl)methyl)cyclohexyl)-6-(2-hydroxypropan-2-yl)-2H-indazol-5-yl)-2-(1H-pyrazol-4-yl)thiazole-4-carboxamide]
		58%	252 nM	CC(C)(O)c1cc2nn([C@H]3CC[C@H](N4CCN(CC(=O)N[C@@H](Cc5ccccc5)C(=O)NC5CCC(=O)NC5=O)CC4)CC3)cc2cc1NC(=O)c1ccc2cc(C#N)cnn12 (stereo partly drawn) [Example 439, 3-cyano-N-(2-((1S,4r)-4-(4-(2-(((2S)-1-((2,6-dioxopiperidin-3-yl)amino)-1-oxo-3-phenylpropan-2-yl)amino)-2-oxoethyl)piperazin-1-yl)cyclohexyl)-6-(2-hydroxypropan-2-yl)-2H-indazol-5-yl)pyrrolo[1,2-b]pyridazine-7-carboxamide]
		80%	183 nM	CC(C)(O)c1cc2nn([C@H]3CC[C@H](N4CCN(c5ccc(CCC(=O)NC6CCC(=O)NC6=O)cc5)CC4)CC3)cc2cc1NC(=O)c1ccc2cc(C#N)cnn12 (stereo partly shown) [Example 440, 3-cyano-N-(2-((1r,4r)-4-(4-(4-(3-((2,6-dioxopiperidin-3-yl)amino)-3-oxopropyl)phenyl)piperazin-1-yl)cyclohexyl)-6-(2-hydroxypropan-2-yl)-2H-indazol-5-yl)pyrrolo[1,2-b]pyridazine-7-carboxamide]

More lines, now with the values behind:

Structure (SMILES)	DC50 (IRAK4 [1])	Dmax (IRAK4 [1])	Dmax (IRAK4 [2])	DC50 (IRAK4 [2])
CC1(C)OC(c2ccc3cc(C#N)cnn23)=Nc2cc3cn(C4CCN(C5CCN(C(=O)[C@@H]6CCN(c7cc(F)c([C@H]8CCC(=O)NC8=O)c(F)c7)C6)CC5)CC4)nc3cc21 [Example 412, 7-(2-(1′-((R)-1-(4-((R)-2,6-dioxopiperidin-3-yl)-3,5-difluorophenyl)pyrrolidine-3-carbonyl)-[1,4′-bipiperidin]-4-yl)-8,8-dimethyl-2,8-dihydro-[1,3]oxazino[4,5-f]indazol-6-yl)pyrrolo[1,2-b]pyridazine-3-carbonitrile]			5%	> 10000 nM
CC(C)(O)c1cc2nn([C@H]3CC[C@H](N4CCN(CCc5cc(F)c([C@H]6CCC(=O)NC6=O)c(F)c5)CC4)CC3)cc2cc1NC(=O)c1ccn2cc(C#N)cnc12 [Example 413, 3-cyano-N-(2-((1R,4r)-4-(4-(4-((R)-2,6-dioxopiperidin-3-yl)-3,5-difluorophenethyl)piperazin-1-yl)cyclohexyl)-6-(2-hydroxypropan-2-yl)-2H-indazol-5-yl)pyrrolo[1,2-a]pyrimidine-8-carboxamide]			25%	> 1000 nM
N#Cc1cnc2c(C(=O)Nc3ccc4nn([C@H]5CC[C@H](N6CCN(C7CN(c8cc(F)c([C@H]9CCC(=O)NC9=O)c(F)c8)C7)CC6)CC5)cc4c3)cnn2c1 [Example 424, 6-cyano-N-(2-((1R,4r)-4-(4-(1-(4-((R)-2,6-dioxopiperidin-3-yl)-3,5-difluorophenyl)azetidin-3-yl)piperazin-1-yl)cyclohexyl)-2H-indazol-5-yl)pyrazolo[1,5-a]pyrimidine-3-carboxamide]			42%	> 1000 nM
CC(C)(O)c1cc2nn([C@H]3CC[C@H](CN4CCN(C(=O)C5CN(c6cc(F)c([C@H]7CCC(=O)NC7=O)c(F)c6)C5)CC4)CC3)cc2cc1NC(=O)c1csc(-c2cn[nH]c2)n1 [Example 434, N-(2-((1r,4r)-4-((4-(1-(4-((R)-2,6-dioxopiperidin-3-yl)-3,5-difluorophenyl)azetidine-3-carbonyl)piperazin-1-yl)methyl)cyclohexyl)-6-(2-hydroxypropan-2-yl)-2H-indazol-5-yl)-2-(1H-pyrazol-4-yl)thiazole-4-carboxamide]			97%	0.2 nM
O=C1CC[C@H](c2c(F)cc(N3CC(CN4CCN([C@H]5CC[C@H](n6cc(NC(=O)c7csc(-c8cn[nH]c8)n7)c(C(F)F)n6)CC5)CC4)C3)cc2F)C(=O)N1 [Example 435, N-(3-(difluoromethyl)-1-((1r,4r)-4-(4-((1-(4-((R)-2,6-dioxopiperidin-3-yl)-3,5-difluorophenyl)azetidin-3-yl)methyl)piperazin-1-yl)cyclohexyl)-1H-pyrazol-4-yl)-2-(1H-pyrazol-4-yl)thiazole-4-carboxamide]			100%	0.4 nM
CC(C)(O)c1cc2nn([C@H]3CC[C@H](N4CCN(C(=O)/C=C/C56CC7CC(CC(C7)C5)C6)CC4)CC3)cc2cc1NC(=O)c1ccc2cc(C#N)cnn12 [Example 441, N-(2-((1r,4r)-4-(4-((E)-3-(adamantan-1-yl)acryloyl)piperazin-1-yl)cyclohexyl)-6-(2-hydroxypropan-2-yl)-2H-indazol-5-yl)-3-cyanopyrrolo[1,2-b]pyridazine-7-carboxamide]			4%	> 1000 nM
